This test in a line: In vitro bovine teeth test (stain prevention solutions). Particulars: for concentration showing a significant visible whitening effect: % by weight of solution, bovine teeth test; for stain-prevention effect: bovine teeth tests, dose response of solutions of Table 1 (FIG. 1), change in whitening index. On the procedure:
HAD assay and the bovine teeth test were employed by methods generally known in the art for screening stain prevention actives. HAD assays generally included pre-coating a HAD disc with saliva for 1-2 hours and subsequently exposing the disc to a staining broth containing tea, coffee, gastric mucin, trypticase soy broth and saliva for four days. Each day, the disc was moved from staining broth to a solution with a stain prevention formulation three times. The process was repeated for four days. The disc was dried and the color was measured. […] The color of the bovine teeth was measured before and after staining.
To evaluate stain prevention effect, the whitening index of the teeth before and after staining and treatment was calculated. The white index, W, is defined as:
W*=√{square root over ((L*−1.00)^2+(a*)^2+(b*)^2)}
A pure white substance will have W value of […]. The higher the value of ΔW, the whiter the sample would be.
In total, 4-6 HA discs or bovine teeth were tested for each compound or combination. The values were averaged.

On to `CCCCCCCCCCCC(=O)N[C@@H](CCCN=C(N)N)C(=O)OCC` [LAE, lauroyl arginine ethyl ether], for which the “concentration showing a significant visible whitening effect” value is on record as not below 0.05% and the stain-prevention effect result is given as “very effective”.
As for `O=P([O-])([O-])OP(=O)([O-])[O-].[Na+].[Na+].[Na+].[Na+]` [SPP, sodium pyrophosphate], the stain-prevention effect result is reported as “very effective”.
Consider `OO` [hydrogen peroxide, reference compound], for which the “concentration showing a significant visible whitening effect” value is given as not below 0.25%.
On to `NC(N)=O` [Urea, urea], for which the stain-prevention effect entry is reported as “very effective”.
On to `O=P(O)(O)OP(=O)(O)OP(=O)(O)O` [STP, sodium tripolyphosphate], for which the “concentration showing a significant visible whitening effect” value is on record as not below 0.1% and the stain-prevention effect entry is listed as “very effective”. For the same compound, the “relative effectiveness for stain prevention” value (comparison between compounds or combinations) is “more effective”.

The values above are taken from US20190289874A1, “STAIN PREVENTION FORMULATIONS” (WM. WRIGLEY JR. COMPANY, priority 2016, published 2019).
